Measured values reported in patent publication US10485814B2, “Nicotinamide riboside analogs and pharmaceutical compositions and uses thereof” (GlaxoSmithKline Intellectual Property (No. 2) Limited, priority 2014, dated 2019).
Values belong to the compound of their own block, whether it stands above or below them.

Experiments:
[1] = system: HaCaT cells (a human keratinocyte cell line); assay: Intracellular NAD measurement in HaCaT cells (ADPR cyclase enzymatic assay, absorbance 405 nm); type: cell-based
Experimental: HaCaT cells (AddexBio Technologies, San Diego, Calif., Passage 16-19) were grown in Medium DMEM/GlutMax (Life technologies, Grand Island, N.Y.) supplemented with 10% FBS (Life technologies) and Non-essential amino acids (NEAA, Life technologies) and then seeded in 12-well plates (Corning, Tewksbury, Mass.) with a density at 2×10^5 cells per well and 2 ml of culture medium in each well for overnight.
Stock solution of dihydronicotinamide riboside (NRH, GSK3008320A, GSK, RTP, NC) was prepared in ethanol at 100 mM (25.6 mg/ml) and stored at −20° C. Cells were treated with different concentrations of NRH for 3 hrs, washed twice with PBS containing 5 mM EDTA, and then subject to Nicotinamide adenine dinucleotide (NAD) measurement. In brief, acetonitrile (ACN) lysis buffer (Ammonium Acetate (50 mM) and 90% acetonitrile) was added to each well (200 μl/well) to lyse the cells at RT for 5-10 mins by gently rotating on a culture plate shaker at a low speed. Enzyme master mix (300 μM of 5-Amino-(3,4′-bipyridin)-6(1H)-one (Inamrinone) (Sigma-Aldrich), a substrate for ADP ribosyl cyclase (ADPR cyclase)) and 30 nM ADPR Cyclase (Sigma, St. Louis, Mo.), 7.5 μM of N-(2-fluoro-4-(methylsulfonyl)phenyl)-2-methyl-6-(thiazol-5-yl)isonicotinamide (a CD38 inhibitor) in 75 mM HEPES pH7 buffer (Life Technologies)) was added to the lysed cells (400 μl of enzyme master mix/well). Enzymatic reaction was incubated at RT for ˜30 min. At the end of incubation, the supernatant (200 μl) of the reaction solution from each well was transferred to each well of a 96-well plate and absorbance was read twice in the 96-well plate at 405 nm using a plate reader (Spectra Maxplus, Molecular Devices, Sunnyvale, Calif.). A mixture of enzyme master mix and ACN extraction solution at 2:1 ratio was used as a blank reference. NAD (Sigma) was used as a positive control.
HaCaT cells were grown as described in example 23 in the regular cell culture DMEM medium as described earlier or in the Epilife medium without nacinamide (Life Technologies). Cells were treated with different concentrations of NRH or niacinamide (NIA, DSM nutritional products) for 3 hrs, washed twice with PBS containing 5 mM EDTA, and then subject to Nicotinamide adenine dinucleotide (NAD) measurement as described in example 23. A mixture of enzyme master mix and ACN extraction solution at 2:1 ratio for a blank reference. NAD (Sigma) was used as a positive control. […] Both the CD38 inhibitor and Niacinamide increased NAD in the HaCaT cells cultured in the Vit B3 depleted culture medium, and the induction of NAD by niacinamide was dose-dependent (solid bars). However, the induction of NAD by niacinamide (highest at ˜1.5 fold) was low compared to those by NRH. Therefore, NRH is a stronger NAD inducer compared to a CD38 inhibitor or Niacinamide.
(§1) HaCaT cells were grown in regular culture media as described in example 1 and seeded in 12-well plates with density at 2×10^5 cells per well and 1 ml of culture medium in each well. NRH stock solution was prepared in ethanol at 100 mM (25.6 mg/ml) and stored at −20° C. Stock solutions of NRH esters were made at 50 mM in DMSO (see FIG. 9B for compound info). Cells were treated with NRH esters and NRH at 150 μM for 6 and 16 hrs, washed twice with PB S containing 5 mM EDTA, and then subject to Nicotinamide adenine dinucleotide (NAD) measurement as described in example 23.
HaCaT cells were grown in regular culture media as described above and seeded in 12-well plates with density at 2×10^5 cells per well and 1 ml of culture medium in each well. NRH stock solution was prepared in ethanol at 100 mM (25.6 mg/ml) and stored at −20° C. NRH (200 μM) was used as a positive control. Because of the possible solubility issue related to NRH monoC16, fatty acid-free bovine serum albumin (defatted BSA, Sigma) was used as a carrier for the compound. NRH monoC16 stock solution (100×) was complexed with defatted BSA ([…]) prior to the treatment, resulting in a NRH monoC16 stock solution (10 ×). […]

[2] = Gravimetric Vapor Sorption (GVS); type: physicochemical; conditions: 90% RH, 25° C.
Experimental: Gravimetric Vapor Sorption (GVS): Samples were analyzed using a VTI corporation (now part of TA Instruments) SGA-100 with Cahn microbalance equipped with quartz sample and reference pans. Samples were dried in the SGA-100 under dry nitrogen for 5 hours at 25° C. followed by a moisture absorption step ramp from 5% relative humidity (RH) to 95% or 90% RH followed by a desorption step ramp back to 5% or 10% RH (all steps at 25° C.). The samples were held at each % RH step for 4 hours.

[3] = Precipitation on addition of stock solution to cell culture media; type: physicochemical
Experimental: as §1
HaCaT cells were grown in regular culture media as described above and seeded in 12-well plates with density at 2×10^5 cells per well and 1 ml of culture medium in each well. NRH stock solution was prepared in ethanol at 100 mM (25.6 mg/ml) and stored at −20° C. NRH (200 μM) was used as a positive control. Because of the possible solubility issue related to NRH monoC16, fatty acid-free bovine serum albumin (defatted BSA, Sigma) was used as a carrier for the compound. NRH monoC16 stock solution (100×) was complexed with defatted BSA ([…]) prior to the treatment, resulting in a NRH monoC16 stock solution (10 ×). NRH monoC16 was then added to the culture media giving a final BSA concentration of 100 μM. […] Defatted BSA was also added to the control samples at a final concentration of 100 μM. […]

HaCaT cells = assay: H2O2-induced reactive oxygen species (ROS) in HaCaT cells (CellROX deep red); type: cell-based, human; conditions: 3 hr pre-incubation then 250 μM H2O2, Hydroxyterosol 0.005%, niacinamide 4.5 mM, NRH several concentrations
Experimental: HaCaT cells were grown as described in example 23 and were seeded in 96-well plates (Nunc™ black with optical bottom, Thermo Fisher Scientific, Inc., Waltham, Mass.) with a density at 2×10^4 cells per well and 100 μl medium in each well, and grown overnight before treatments. Stock solutions of NRH and other test compounds were prepared and diluted to 2× of final treatment concentrations in DMEM medium in 96-well storage plate as indicated in the FIG. 11. HaCaT Cells were treated in triplicates by adding 100 μl of diluted solutions of test compounds (2×) to each well containing 100 μl medium already. Cells were incubated in the presence of test compounds for 3 hrs. At the end of 3 hr incubation, cells were washed once with 200 μl DPBS with Ca^++ and Mg^++ (Life Technologies) and then fed with 100 μl DMEM medium each well containing H2O2 at 250 μM (as a ROS (reactive oxygen species) inducer, Sigma). After 30 min incubation, cells were washed once with 200 μl DPBS with Ca^++ and Mg^++ and CellROX deep red reagent (2.5 mM stock solution, Life Technologies) was added to the medium to a final concentration of 5 μM. After 1 hr incubation at 37° C., 5% CO2, Cells were washed for 3 times with DPBS, fluorescence signal was read at Ex. 640 nm and Em. 665 nm in Biotek Synergy H4 microplate reader (BioTek, Winooski, Vt.). Untreated cells were served as controls (normalized to 1). All the treated samples were normalized to the untreated control.

[4] = system: Reconstructed human epidermis (EpiDerm, EPI-200); assay: UVB-induced inflammation mediators in reconstructed epidermal equivalents; type: cell-based; conditions: topical 1 hr pre-treatment, NRH 0.1% or niacinamide 3%, UVB 150 mJ/cm^2, media 6 hr post irradiation
Excerpt: Solar Ultraviolet (UV) light exposure on skin causes photoaging, sunburn, DNA damages and carcinogenesis. UV radiation (UVR) also results in inflammation, which can be measured in vitro by pro-inflammatory mediators, e.g., TNF-α, IL-8. The in vitro reconstructed human epidermis (RHE) model is used to evaluate the anti-inflammatory effect of NRH.
Reconstructed human epidermis (EpiDerm, EPI-200, made of normal human epidermal keratinocytes, MatTek, Ashland, Mass.), were placed into media (EPI-100-ASY, 1.0 ml/well of 6-well plates) and incubated overnight at 37° C./5% CO2. The media was replenished with fresh culture media prior to study. NRH at 0.1% and niacinamide at 3% in vehicle (50% H2O/35% ethanol/15% propylene glycol, v/v/v) were applied topically at 6 μl and then gently spread onto the skin equivalents (˜20 rotations) using the rubber side of a plunger of 1 ml syringe. Vehicle was served as an untreated control. After 1 hr pre-treatment with NRH, niacinamide, or vehicle control, the EpiDerm tissues were transferred to a sterile 6-well plate containing 1 ml of DPBS per well and then exposed to UVB at 150 mJ/cm^2. The Newport Solar Simulator System (Power unit 69920, and Lamp 91192-1000, Newport Corporate, Irvine, Calif.) was used as the UVB emitter to achieve a UVB irradiation of 150 mJ/cm^2. Measurement of the irradiation was taken using an ILT-1400 Handheld, Portable Radiometer/Photometer (International Light Technologies, Inc., Peabody, Mass.) with a UVB detector (SEL240/T2ACT5, 235-307 nm, International Light Technologies, Inc.). After UVB irradiation, EpiDerm tissues were transferred back to the 6-well plate containing media and incubated at 37° C./5% CO2 for 6 hours. At the end of the incubation (6 hr post UVB irradiation), culture media were collected for the measurement of IL-8, and TNF-α concentration by MagPix (Millipore, HCYTOMAG-60K).

Human dermal fibroblasts = assay: TNFα-induced gene expression in dermal fibroblasts (QPCR); type: cell-based; conditions: TNFα 10 ng/ml, 30 hr
Experimental: Human dermal fibroblasts were grown in regular culture media as described in example 23 above and seeded in 12-well plates at 2×10^5 cells per well for overnight. Cells were then replenished with fresh medium and treated with TNFα (10 ng/ml) with and without NRH (200 μM) for 30 hr. At the end of the incubation, cells were washed once with HBSS with Ca^2+ and Mg^2+ (Life Technologies), and subject to RNA isolation and QPCR analyses.

[5] = HaCaT in Vit B3 depleted culture medium, 3 hrs

GVS weight gain from the dried state [2]: approximately 7%
precipitation when stock solution added to the media ([3]; 50 mM DMSO stock added to culture media, 150 μM): noticeable precipitations occurred
precipitation in culture media ([3]; stock complexed with defatted BSA, final BSA 100 μM): no precipitation was observed
Compound: CCCCCCCCCCCCCCCC(=O)OC[C@H]1O[C@@H](N2C=CCC(C(N)=O)=C2)[C@H](O)[C@@H]1O [NRH monoC16]
NAD boosting activity ([1]; HaCaT, 150 μM, 6 and 16 hrs): higher NAD boosting activity compared to all the other tested NR esters
activity after 24 hr compared with 6 hr treatment ([1]; HaCaT, defatted BSA carrier): a higher activity was observed
NAD levels ([1]; HaCaT, different concentrations, defatted BSA carrier (100 μM), 6 and 24 hrs): increases NAD levels in a dose dependent manner
NAD boosting activity relative to NRH ([1]; HaCaT, same concentrations, defatted BSA carrier): slightly lower than that of NRH

Compound: NC(=O)c1cccnc1 [Niacinamide, pyridine-3-carboxamide, reference compound]
NAD elevation ([1]; HaCaT in DMEM medium with Vit B3, highest tested doses, 3 hrs): did not lead to NAD elevation
NAD level [1, 5]: increased NAD
dose dependence of induction of NAD [1, 5]: dose-dependent
induction of NAD (highest) [1, 5]: ~1.5 fold
H2O2-induced ROS (HaCaT cells): did not inhibit
UVB-induced IL-8 [4]: not
UVB-induced TNF-α [4]: not
UVB-induced IL-8 ([4]; listed as niacinamide): did not inhibit
UVB-induced TNF-α ([4]; listed as niacinamide): did not inhibit

Compound: TNF-α
COX-2 gene expression (Human dermal fibroblasts): induced COX-2 gene expression
